From patent EP0284492A1, “Peptidic fractions inducing protective antibodies against the bovine leukemia virus, process for obtaining such fractions, their coding sequences and vaccines produced by these fractions” (RHONE MERIEUX, priority 1987, dated 1988)
Ends that are not written are not given here.

Legend:
[1] = system: sérums d'animaux infectés par le virus BLV; type: binding, bovin, ovin
pseudotypes VSV (BLV) = type: cell-based, virus BLV

For “EPRCPYVGADHFDCP (cysteine pairing not given here) [peptide 78-92, séquence 78-92 de la gp51]”, the “reconnaissance de l'oligopeptide par les sérums” value [1] was “reconnu à la fois par le sérum bovin (sérum n° 15) et le sérum ovin (sérum n° 65)”, the “capacité à inhiber les pseudotypes” value (pseudotypes VSV (BLV)) was “remarquable capacité à inhiber les pseudotypes” and the “induction d'anticorps neutralisants” value (pseudotypes VSV (BLV)) was “induire des anticorps neutralisants”.
